The values that follow come from paper PMC8852625, “A Computer-Aided Approach for the Discovery of D-Peptides as Inhibitors of SARS-CoV-2 Main Protease” (Frontiers in Molecular Biosciences, 2022).

The test system of assay [1] is SARS-CoV-2 3CL^pro.
Assay [2] deals with 3CL^pro. As to conditions: in vivo; cited from earlier work.

Like-named read-outs stand apart in the source and are kept apart here.

Regarding ACE-HIE-ALA-PRO-TRP-NME [4P3], in assay [1] (pH 7.2), the “inhibition (loss) of 3CL^pro activity” value was “more than 80%”, the “inhibition of 3CL^pro (in words)” value is “most potent” and the “residual activity of 3CL^pro” value was “below 20%”.

Consider `CC(C)(C)[C@H](NC(=O)C(F)(F)F)C(=O)N1C[C@H]2[C@@H]([C@H]1C(=O)N[C@H](C#N)C[C@@H]1CCNC1=O)C2(C)C` [PF-07321332], for which the “phase I clinical trial result” value in assay [2] is listed as “promising results”.

As for ACE-HIE-HIE-PRO-TYR-NME [4P4], the “inhibition (loss) of 3CL^pro activity” value in assay [1] (20 μM peptide, 500 nM 3CL^pro, 30 min pre-incubation, 50 µM DABCYL-KTSAVLQ↓SGFRKME-EDANS, 30 min, 37°C, 20 mM Tris pH 7.2, 200 mM NaCl, 1 mM EDTA, 1 mM TCEP, fluorescence 360/460 nm, mean, n = 3) is recorded as “more than 80%”. For the same compound, the “residual activity of 3CL^pro” value in assay [1] (20 μM peptide, 500 nM 3CL^pro, 30 min pre-incubation, 50 µM fluorogenic substrate, 37°C, pH 7.2, mean, n = 3) is given as “below 20%”.
